Measured values taken from BindingDB's records for patent US20260028328 (Chiesi Farmaceutici, 2026).

Assays:
[1] = molecular target: T1, Discoidin domain-containing receptor 2 (Homo sapiens, UniProt Q16832); experiment: Binding Assays
T1 sequence (Q16832 whole entry): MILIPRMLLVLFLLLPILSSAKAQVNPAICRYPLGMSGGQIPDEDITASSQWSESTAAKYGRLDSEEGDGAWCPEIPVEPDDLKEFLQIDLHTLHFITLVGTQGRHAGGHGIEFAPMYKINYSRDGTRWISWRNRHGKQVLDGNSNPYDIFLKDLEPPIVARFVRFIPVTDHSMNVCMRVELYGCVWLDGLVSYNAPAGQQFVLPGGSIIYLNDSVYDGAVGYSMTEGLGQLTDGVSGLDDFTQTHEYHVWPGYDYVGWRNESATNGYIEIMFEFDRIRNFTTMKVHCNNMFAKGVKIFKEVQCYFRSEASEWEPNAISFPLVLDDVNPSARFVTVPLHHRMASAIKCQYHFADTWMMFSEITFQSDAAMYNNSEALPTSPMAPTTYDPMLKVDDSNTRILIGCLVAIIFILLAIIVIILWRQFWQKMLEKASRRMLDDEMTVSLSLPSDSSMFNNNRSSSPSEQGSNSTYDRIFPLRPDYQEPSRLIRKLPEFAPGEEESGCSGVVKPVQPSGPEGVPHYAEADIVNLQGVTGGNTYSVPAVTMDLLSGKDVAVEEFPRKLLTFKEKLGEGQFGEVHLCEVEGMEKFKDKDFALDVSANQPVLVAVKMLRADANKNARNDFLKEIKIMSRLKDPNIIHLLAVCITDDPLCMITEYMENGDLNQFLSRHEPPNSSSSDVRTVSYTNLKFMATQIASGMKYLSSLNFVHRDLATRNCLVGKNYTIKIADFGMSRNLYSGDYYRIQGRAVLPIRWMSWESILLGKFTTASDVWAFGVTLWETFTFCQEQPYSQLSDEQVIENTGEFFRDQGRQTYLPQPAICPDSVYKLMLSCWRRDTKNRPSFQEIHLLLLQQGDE
Procedure: (§1) DDR1 and DDR2 binding assays were performed using Life Technologies LanthaScreen™ Europium Kinase Binding assay. The compounds were incubated with 5 nM DDR1 (Carna Biosciences) or 5 nM DDR2 (Life Technologies) for 1 h at rt in white 384-well OptiPlate (PerkinElmer), containing 20 nM or 10 nM Kinase Tracer 178 respectively and 2 nM Europium labelled anti-GST antibody (Life Technologies) in assay buffer (50 mM HEPES pH 7.5, 10 mM MgCI2, 1 mM EGTA and 0.01% BRIJ35). The ratio of fluorescence emission 665 nm/615 nm after excitation at 340 nm was obtained using the Tecan Spark 20M plate reader. IC50 values were determined in GraphPad Prism 7.0 software, using 4 parameter model: log(inhibitor) vs. response. IC50 values were converted in Ki using the Cheng-Prusoff equation (Ki=IC50/(1+[Tracer]/Kd).

[2] = molecular target: Epithelial discoidin domain-containing receptor 1 (Homo sapiens, UniProt Q08345); experiment: Binding Assays
Chain of Epithelial discoidin domain-containing receptor 1 (Q08345 whole entry, the tested form may be a part): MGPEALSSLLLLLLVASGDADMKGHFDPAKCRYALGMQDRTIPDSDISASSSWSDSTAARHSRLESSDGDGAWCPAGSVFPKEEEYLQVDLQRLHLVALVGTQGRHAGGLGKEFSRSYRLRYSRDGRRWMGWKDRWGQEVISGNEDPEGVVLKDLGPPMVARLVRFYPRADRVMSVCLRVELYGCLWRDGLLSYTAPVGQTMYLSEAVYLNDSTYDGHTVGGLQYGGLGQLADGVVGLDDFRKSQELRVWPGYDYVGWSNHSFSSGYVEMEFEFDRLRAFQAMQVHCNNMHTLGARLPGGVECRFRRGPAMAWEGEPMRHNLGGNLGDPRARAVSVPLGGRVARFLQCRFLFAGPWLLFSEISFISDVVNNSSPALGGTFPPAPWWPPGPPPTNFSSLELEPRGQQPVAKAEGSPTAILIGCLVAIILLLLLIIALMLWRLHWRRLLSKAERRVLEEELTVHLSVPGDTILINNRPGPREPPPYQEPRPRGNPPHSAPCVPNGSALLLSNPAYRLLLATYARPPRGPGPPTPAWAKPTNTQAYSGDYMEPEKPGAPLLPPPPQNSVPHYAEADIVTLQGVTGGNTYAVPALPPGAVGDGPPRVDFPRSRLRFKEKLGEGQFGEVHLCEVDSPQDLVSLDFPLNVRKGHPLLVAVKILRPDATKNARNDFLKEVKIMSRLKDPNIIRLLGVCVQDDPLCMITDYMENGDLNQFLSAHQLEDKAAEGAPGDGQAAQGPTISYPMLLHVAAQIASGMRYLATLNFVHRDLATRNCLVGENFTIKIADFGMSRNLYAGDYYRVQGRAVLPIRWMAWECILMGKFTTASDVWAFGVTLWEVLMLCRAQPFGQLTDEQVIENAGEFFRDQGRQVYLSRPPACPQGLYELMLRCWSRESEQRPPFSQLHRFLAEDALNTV
Procedure: as §1

Row | Structure (SMILES) | Ki [1] | Ki [2]
1 | Cc1ccc(C(=O)Nc2cncc(C(F)(F)F)c2)cc1SC1CN(c2cncnc2)C1 [US20260028328, Example 177] | 25 to 100 nM | 5 to 25 nM
2 | Cc1ccc(C(=O)Nc2cncc(C(F)(F)F)c2)cc1OC1CN(c2cncc(C(N)=O)c2)C1 [US20260028328, Example 139] | – | < 5 nM
